Results reported in PubChem BioAssay AID248 (DTP/NCI, 2004).
Toxic doses and inconclusive results are not listed. Cut-off read from the data, not from the text of the source: active = T/C of 150% or more; inactive = T/C below 125%.

Test system: L1210 leukemia ip in BDF1 mice, survival T/C
Experiment: NCI In Vivo Anticancer Drug Screen. Data for tumor model L1210 Leukemia (intraperitoneal) in B6D2F1 (BDF1) mice
Details: endpoint: mean survival time, higher = longer survival
Summary of the method: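 Transplantable tumor model; survival measured in treated vs vehicle control mice. Value = treated/control.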

[1] = dose: 100.0 mg/kg/injection, schedule: Q04DX003 (ip), vehicle: saline with Tween-80
[2] = dose: 200.0 mg/kg/injection, schedule: Q04DX003 (ip), vehicle: saline with Tween-80
[3] = dose: 400.0 mg/kg/injection, schedule: Q04DX003 (ip), vehicle: saline with Tween-80
[4] = dose: 100.0 mg/kg/injection, schedule: Q04DX003 (ip), vehicle: Klucel (hydroxypropylcellulose) (HPC)
[5] = dose: 200.0 mg/kg/injection, schedule: Q04DX003 (ip), vehicle: Klucel (hydroxypropylcellulose) (HPC)
[6] = dose: 400.0 mg/kg/injection, schedule: Q04DX003 (ip), vehicle: Klucel (hydroxypropylcellulose) (HPC)
[7] = dose: 100.0 mg/kg/injection, schedule: Q01DX009 (ip), vehicle: Klucel (hydroxypropylcellulose) (HPC)
[8] = dose: 200.0 mg/kg/injection, schedule: Q01DX009 (ip), vehicle: Klucel (hydroxypropylcellulose) (HPC)
[9] = dose: 400.0 mg/kg/injection, schedule: Q01DX009 (ip), vehicle: Klucel (hydroxypropylcellulose) (HPC)
[10] = dose: 25.0 mg/kg/injection, schedule: Q01DX009 (ip), vehicle: saline with Tween-80
[11] = dose: 25.0 mg/kg/injection, schedule: Q04DX003 (ip), vehicle: saline with Tween-80
[12] = dose: 12.5 mg/kg/injection, schedule: Q04DX003 (ip), vehicle: Klucel (hydroxypropylcellulose) (HPC)
[13] = dose: 25.0 mg/kg/injection, schedule: Q04DX003 (ip), vehicle: Klucel (hydroxypropylcellulose) (HPC)
[14] = dose: 50.0 mg/kg/injection, schedule: Q04DX003 (ip), vehicle: Klucel (hydroxypropylcellulose) (HPC)
[15] = dose: 100.0 mg/kg/injection, schedule: Q01DX001 (ip), vehicle: carboxymethylcellulose (CMC)
[16] = dose: 200.0 mg/kg/injection, schedule: Q01DX001 (ip), vehicle: carboxymethylcellulose (CMC)
[17] = dose: 400.0 mg/kg/injection, schedule: Q01DX001 (ip), vehicle: carboxymethylcellulose (CMC)
[18] = dose: 100.0 mg/kg/injection, schedule: Q01DX001 (ip), vehicle: saline
[19] = dose: 200.0 mg/kg/injection, schedule: Q01DX001 (ip), vehicle: saline
[20] = dose: 400.0 mg/kg/injection, schedule: Q01DX001 (ip), vehicle: saline
[21] = dose: 50.0 mg/kg/injection, schedule: Q01DX009 (ip), vehicle: saline
[22] = dose: 100.0 mg/kg/injection, schedule: Q01DX009 (ip), vehicle: saline
[23] = dose: 200.0 mg/kg/injection, schedule: Q01DX009 (ip), vehicle: saline
[24] = dose: 25.0 mg/kg/injection, schedule: Q01DX009 (ip), vehicle: saline

Measured: T/C

COC(=O)c1ccc(C(=O)O)cc1
inactive: [1] 100 % of control | [2] 102 % of control | [3] 91 % of control

CCC(CO)Nc1nc2c(Cl)cc(Cl)cc2c2ccccc12 (stereo not given)
inactive: [4] 100 % of control | [5] 100 % of control | [6] 90 % of control

CCCCC(=O)N1C(C)CCCC1C (stereo not given)
inactive: dose: 25.0 mg/kg/injection, schedule: Q04DX002 (ip), vehicle: saline 88 % of control | dose: 50.0 mg/kg/injection, schedule: Q04DX002 (ip), vehicle: saline 91 % of control | dose: 100.0 mg/kg/injection, schedule: Q04DX002 (ip), vehicle: saline 94 % of control | dose: 400.0 mg/kg/injection, schedule: Q04DX002 (ip), vehicle: saline 96 % of control

Cc1ccc(C(O)C(=O)O)cc1 (stereo not given)
inactive: dose: 75.0 mg/kg/injection, schedule: Q01DX001 (ip), vehicle: acetone 100 % of control | dose: 150.0 mg/kg/injection, schedule: Q01DX001 (ip), vehicle: acetone 96 % of control

O=C(Nc1ccccc1C(=O)N/N=C/c1ccccc1O)c1ccccc1Cl
inactive: [7] 94 % of control | [8] 94 % of control | [9] 94 % of control

Cc1c(NC(C)C)ccc(NC(C)C)c1C
inactive: dose: 100.0 mg/kg/injection, schedule: Q04DX002 (sc), vehicle: olive oil, sesame oil, peanut oil 100 % of control | dose: 200.0 mg/kg/injection, schedule: Q04DX002 (sc), vehicle: olive oil, sesame oil, peanut oil 100 % of control

COC(=O)C1=NN(C(C)=O)C(c2ccc(C)cc2)(c2ccc(C)cc2)C1
inactive: dose: 100.0 mg/kg/injection, schedule: Q01DX001 (ip), vehicle: steriod suspending solution 105 % of control | dose: 200.0 mg/kg/injection, schedule: Q01DX001 (ip), vehicle: steriod suspending solution 87 % of control | dose: 400.0 mg/kg/injection, schedule: Q01DX001 (ip), vehicle: steriod suspending solution 92 % of control

c1cc(Nc2ccncc2)ccn1
inactive: dose: 6.25 mg/kg/injection, schedule: Q01DX009 (ip), vehicle: saline with Tween-80 97 % of control | dose: 12.5 mg/kg/injection, schedule: Q01DX009 (ip), vehicle: saline with Tween-80 95 % of control | [10] 99 % of control | [11] 97 % of control

O=C(O)c1ccc2c(ccc3ccc4ccccc4c32)c1
inactive: [12] 100 % of control | [13] 89 % of control | [14] 96 % of control | [4] 97 % of control | [5] 106 % of control

COCCNCC1OC(OC)C2OC(C)(C)OC12 (stereo not given)
inactive: dose: 100.0 mg/kg/injection, schedule: Q01DX005 (ip), vehicle: saline 104 % of control | dose: 200.0 mg/kg/injection, schedule: Q01DX005 (ip), vehicle: saline 102 % of control

CCOc1ccnc(OCC)n1
inactive: [10] 86 % of control | [11] 95 % of control | dose: 50.0 mg/kg/injection, schedule: Q01DX009 (ip), vehicle: saline with Tween-80 100 % of control | dose: 50.0 mg/kg/injection, schedule: Q04DX003 (ip), vehicle: saline with Tween-80 97 % of control | dose: 100.0 mg/kg/injection, schedule: Q01DX009 (ip), vehicle: saline with Tween-80 91 % of control | [1] 106 % of control

CC(C)CC(NC(=O)C1(N)C2CC3CC(C2)CC1C3)C(=O)O (stereo not given)
inactive: dose: 22.5 mg/kg/injection, schedule: Q01DX009 (ip), vehicle: Klucel (hydroxypropylcellulose) (HPC) 100 % of control | dose: 45.0 mg/kg/injection, schedule: Q01DX009 (ip), vehicle: Klucel (hydroxypropylcellulose) (HPC) 103 % of control | dose: 90.0 mg/kg/injection, schedule: Q01DX009 (ip), vehicle: Klucel (hydroxypropylcellulose) (HPC) 97 % of control | [7] 108 % of control | [8] 107 % of control | [9] 100 % of control

S=P(NCCCCCCCNP(=S)(N1CC1)N1CC1)(N1CC1)N1CC1
inactive: [15] 106 % of control | [16] 98 % of control | [17] 104 % of control

CS(=O)(=O)Nc1cc(Cl)c(NS(C)(=O)=O)c(Cl)c1Cl
inactive: dose: 100.0 mg/kg/injection, schedule: Q01DX001 (ip), vehicle: saline with Tween-80 101 % of control | dose: 200.0 mg/kg/injection, schedule: Q01DX001 (ip), vehicle: saline with Tween-80 96 % of control | dose: 400.0 mg/kg/injection, schedule: Q01DX001 (ip), vehicle: saline with Tween-80 107 % of control

CCOC(=O)P(=O)(OCC)OCC
inactive: [15] 101 % of control | [16] 95 % of control | [17] 104 % of control

CC1=CC(OC2CCCCO2)C2CC1C2(C)C (stereo not given)
inactive: [7] 97 % of control | [4] 98 % of control | [8] 103 % of control | [5] 95 % of control | [9] 92 % of control | [6] 93 % of control

NC(=O)NCc1ccccc1
inactive: [18] 105 % of control | [19] 97 % of control | [20] 103 % of control

CC(C)(CNC1=NCCO1)NC1=NCCO1
inactive: [21] 105 % of control | [22] 107 % of control | [23] 103 % of control

CCCCCCCCCCCCCCCCOc1ccccc1/C=C/C(=O)O
inactive: [4] 91 % of control | [5] 88 % of control | [6] 95 % of control

CCCCC(=O)N/N=C/c1ccc(OCC)c(OCC)c1
inactive: [18] 102 % of control | [19] 98 % of control | [20] 102 % of control

COc1ccc(NC(=O)Nc2cc(C)ccc2C)cc1
inactive: [7] 89 % of control | [4] 93 % of control | [8] 86 % of control | [5] 93 % of control | [9] 92 % of control | [6] 87 % of control

CN(C)C1=NC(=O)C(c2ccccc2)O1 (stereo not given)
inactive: [24] 104 % of control | [21] 111 % of control | dose: 50.0 mg/kg/injection, schedule: Q04DX003 (ip), vehicle: saline 101 % of control | [22] 111 % of control | [23] 101 % of control | dose: 200.0 mg/kg/injection, schedule: Q04DX003 (ip), vehicle: saline 100 % of control | dose: 400.0 mg/kg/injection, schedule: Q04DX003 (ip), vehicle: saline 100 % of control

CCCCCCCCCCCC(c1ccccc1)[N+](C)(C)Cc1ccccc1 (stereo not given)
inactive: dose: 0.25 mg/kg/injection, schedule: Q01DX015 (ip), vehicle: saline 108 % of control | dose: 0.5 mg/kg/injection, schedule: Q01DX015 (ip), vehicle: saline 103 % of control | dose: 1.0 mg/kg/injection, schedule: Q01DX015 (ip), vehicle: saline 115 % of control | dose: 2.0 mg/kg/injection, schedule: Q01DX015 (ip), vehicle: saline 114 % of control | dose: 2.5 mg/kg/injection, schedule: Q01DX001 (ip), vehicle: carboxymethylcellulose (CMC) 93 % of control

C=CC1CC=CCC1 (stereo not given)
inactive: [1] 98 % of control | [2] 97 % of control | [3] 102 % of control

ClC1=C2C=CC=CC2C(Cl)(c2ccccc2)C2C1=C(Cl)c1ccccc1C2(Cl)c1ccccc1 (stereo not given)
inactive: dose: 75.0 mg/kg/injection, schedule: Q01DX001 (ip), vehicle: saline 95 % of control | dose: 150.0 mg/kg/injection, schedule: Q01DX001 (ip), vehicle: saline 97 % of control | dose: 300.0 mg/kg/injection, schedule: Q01DX001 (ip), vehicle: saline 90 % of control

N#CCCNC(=S)Nc1ccccc1
inactive: dose: 25.0 mg/kg/injection, schedule: Q01DX Z (ip), vehicle: methylcellulose (MC) 102 % of control | dose: 50.0 mg/kg/injection, schedule: Q01DX Z (ip), vehicle: methylcellulose (MC) 101 % of control

CC(=O)Nc1ccc(CCCCc2cccc(C(=N)N)c2)cc1
inactive: dose: 12.5 mg/kg/injection, schedule: Q01DX009 (ip), vehicle: saline 101 % of control | [12] 102 % of control | [24] 101 % of control | [13] 100 % of control | [21] 95 % of control | [14] 102 % of control

Nc1ccnnc1
inactive: [21] 106 % of control | [22] 101 % of control | [23] 104 % of control
